The subject of the assay is HBV viral production from HepAD38 cells. The assay is described as follows: Activity of test compounds on viral production from HepAD38 cells (viral load by qPCR of HBV core sequence in supernatant). The conditions noted are these: Hepatitis B virus, 120 h, 5 days incubation, HBV DNA in supernatant by qPCR, top concentration 10 μM, read-out: Viral Load EC50 Activity range. Format: cell-based. A digest of the protocol:
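HepAD38 cells, 50,000/well in tetracycline-free 2% FBS medium, treated 5 days at 37° C. with compound from 10 μM top concentration. HBV DNA in supernatant quantified by TaqMan qPCR of core sequence against DNA standards, relative to DMSO wells; CellTiter-Glo viability read in parallel. EC50/CC50 from four-parameter logistic fit.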

pEC50: −log10 of the molar value.

The pEC50 is −log10 of the EC50, conventionally taken in molar units. In the case of `CN1[C@H](C(=O)Nc2ccc(F)c(Cl)c2)C[C@H](c2cc(-c3ccc(F)cn3)cs2)NS1(=O)=O` (stereo in doubt) [HBV-CSU-243-ISO-II, Cis-N-(3-chloro-4-fluorophenyl)-5-(4-(5-fluoropyridin-2-yl)thiophen-2-yl)-2-methyl-1,2,6-thiadiazinane-3-carboxamide 1,1-dioxide], the pEC50 was greater than 6.00.
The value for `CN1C(C(=O)Nc2ccc(F)cc2)CC(c2cccs2)NS1(=O)=O` (racemic) [HBV-CSU-007, Cis-N-(4-Fluorophenyl)-2-methyl-5-(thiophen-2-yl)-1,2,6-thiadiazinane-3-carboxamide 1,1-dioxide] was greater than 6.00; that for `[2H]C([2H])([2H])N1[C@H](C(=O)Nc2ccc(F)c(Cl)c2)C[C@H](c2ccc(-c3cn(C)cn3)s2)NS1(=O)=O` [HBV-CSU-373-ISO-I, Cis-N-(3-Chloro-4-fluorophenyl)-2-(methyl-d3)-5-(5-(1-methyl-1H-imidazol-4-yl)thiophen-2-yl)-1,2,6-thiadiazinane-3-carboxamide 1,1-dioxide] was greater than 6.00.
With `CN1[C@@H](C(=O)Nc2ccc(F)c(Cl)c2)C[C@H](c2ccc(Br)s2)NS1(=O)=O` [HBV-CSU-114-Trans-ISO-I, (3R,5R)-5-(5-bromothiophen-2-yl)-N-(3-chloro-4-fluorophenyl)-2-methyl-1,2,6-thiadiazinane-3-carboxamide 1,1-dioxide], the pEC50 was 5.30 to 6.00.
The figure for `CN(C)CCCOc1ccc([C@H]2C[C@@H](C(=O)Nc3ccc(F)c(Cl)c3)N(C)S(=O)(=O)N2)cc1` [HBV-CSU-208-ISO-II, Cis-N-(3-chloro-4-fluorophenyl)-5-(4-(3-(dimethylamino)propoxy)phenyl)-2-methyl-1,2,6-thiadiazinane-3-carboxamide 1,1-dioxide] is greater than 6.00.
The figure for `CN1[C@@H](C(=O)Nc2ccc(F)c(Cl)c2)C[C@@H](c2ccc(Br)s2)NS1(=O)=O` [HBV-CSU-114-ISO-II, 5-(5-Bromothiophen-2-yl)-N-(3-chloro-4-fluorophenyl)-2-methyl-1,2,6-thiadiazinane-3-carboxamide 1,1-dioxide] is less than 5.30; for `CN1[C@H](C(=O)Nc2cc(Cl)cc(Cl)c2)C[C@H](c2cccs2)NS1(=O)=O` [HBV-CSU-047-ISO-I, Cis-N-(3,5-Dichlorophenyl)-2-methyl-5-(thiophen-2-yl)-1,2,6-thiadiazinane-3-carboxamide 1,1-dioxide] it is greater than 6.00.
For the molecule `CN1[C@@H](C(=O)Nc2ccc(F)c(Cl)c2)C[C@@H](c2ncc(-c3c[nH]cn3)s2)NS1(=O)=O` (stereo in doubt) [HBV-CSU-333-ISO-II, 5-(5-(1H-imidazol-4-yl)thiazol-2-yl)-N-(3-chloro-4-fluorophenyl)-2-methyl-1,2,6-thiadiazinane-3-carboxamide 1,1-dioxide], the pEC50 is 5.30 to 6.00.
The value for `CN(C)CCN1[C@@H](c2cccs2)C[C@@H](C(=O)Nc2ccc(F)c(Cl)c2)N(C)S1(=O)=O` (relative stereo) [HBV-CSU-043-ISO-I, Cis-N-(3-chloro-4-fluorophenyl)-6-(2-(dimethylamino)ethyl)-2-methyl-5-(thiophen-2-yl)-1,2,6-thiadiazinane-3-carboxamide 1,1-dioxide] was less than 5.30; that for `CN1C(C(=O)Nc2ccc(F)c(Cl)c2)CC(c2ccc(-c3ccc(F)cc3)s2)NS1(=O)=O` (centres unmarked) [HBV-CSU-238] was greater than 6.00; that for `CN1[C@@H](C(=O)Nc2ccc(F)c(Cl)c2)C[C@@H](c2cc(-c3ccn(C)n3)cs2)NS1(=O)=O` [HBV-CSU-288-ISO-II, Cis-N-(3-Chloro-4-fluorophenyl)-2-methyl-5-(4-(1-methyl-1H-pyrazol-3-yl)thiophen-2-yl)-1,2,6-thiadiazinane-3-carboxamide 1,1-dioxide] was 5.30 to 6.00.
The value for `COCCN1[C@H](C(=O)Nc2ccc(F)c(Cl)c2)C[C@H](c2cccs2)NS1(=O)=O` [HBV-CSU-025-ISO-II, Cis-N-(3-chloro-4-fluorophenyl)-2-(2-methoxyethyl)-5-(thiophen-2-yl)-1,2,6-thiadiazinane-3-carboxamide 1,1-dioxide] was greater than 6.00; that for `CN1[C@@H](C(=O)Nc2ccc(F)c(Cl)c2)C[C@@H](c2ccnn2C)NS1(=O)=O` [HBV-CSU-054-ISO-I, Cis-N-(3-Chloro-4-fluorophenyl)-2-methyl-5-(1-methyl-1H-pyrazol-5-yl)-1,2,6-thiadiazinane-3-carboxamide 1,1-dioxide] was less than 5.30; that for `CN1[C@@H](C(=O)Nc2ccc(F)c(Cl)c2)C[C@@H](c2ccccn2)NS1(=O)=O` [HBV-CSU-031-ISO-II, Cis-N-(3-Chloro-4-fluorophenyl)-2-methyl-5-(pyridin-2-yl)-1,2,6-thiadiazinane-3-carboxamide 1,1-dioxide] was less than 5.30.
The figure for `CN1C(C(=O)Nc2ccc(F)c(Cl)c2)CC(c2ccc(-c3cccs3)s2)NS1(=O)=O` (stereo not drawn) [HBV-CSU-162, Cis-N-5-([2,2′-bithiophen]-5-yl)-N-(3-chloro-4-fluorophenyl)-2-methyl-1,2,6-thiadiazinane-3-carboxamide 1,1-dioxide] is greater than 6.00; for `CN1C(C(=O)Nc2ccc(F)c(Br)c2)CC(c2cccs2)NS1(=O)=O` (racemic) [HBV-CSU-016, Cis-N-(3-Bromo-4-fluorophenyl)-2-methyl-5-(thiophen-2-yl)-1,2,6-thiadiazinane-3-carboxamide 1,1-dioxide] it is greater than 6.00; for `CN1[C@@H](C(=O)Nc2ccc(F)c(Cl)c2)C[C@@H](c2ccc(-c3ncnn3C)s2)NS1(=O)=O` [HBV-CSU-323-ISO-II, Cis-N-(3-Chloro-4-fluorophenyl)-2-methyl-5-(5-(1-methyl-1H-1,2,4-triazol-5-yl)thiophen-2-yl)-1,2,6-thiadiazinane-3-carboxamide 1,1-dioxide] it is 5.30 to 6.00.
For the molecule `O=C(Nc1ccc(F)c(Cl)c1)C1CC(c2nccs2)NS(=O)(=O)N1CCCO` (racemic) [HBV-CSU-078, Cis-N-(3-Chloro-4-fluorophenyl)-2-(3-hydroxypropyl)-5-(thiazol-2-yl)-1,2,6-thiadiazinane-3-carboxamide 1,1-dioxide], the pEC50 was 5.30 to 6.00.
`CN1[C@@H](C(=O)Nc2ccc(F)c(Cl)c2)C[C@@H](c2ccc3c(c2)ncn3C)NS1(=O)=O` (relative stereo) [HBV-CSU-360-ISO-II, Cis-N-(3-chloro-4-fluorophenyl)-2-methyl-5-(1-methyl-1H-benzo[d]imidazol-5-yl)-1,2,6-thiadiazinane-3-carboxamide 1,1-dioxide]: the pEC50 is greater than 6.00.
On to `CN1[C@@H](C(=O)Nc2ccc(F)c(Cl)c2)C[C@@H](c2cccc(F)c2)NS1(=O)=O` [HBV-CSU-231-ISO-II, Cis-N-(3-Chloro-4-fluorophenyl)-5-(3-fluorophenyl)-2-methyl-1,2,6-thiadiazinane-3-carboxamide 1,1-dioxide], for which the pEC50 was less than 5.30.
The value for `CN1C(C(=O)Nc2ccc(F)c(Cl)c2)CC(c2cc(-c3cnn(CCO)c3)cs2)NS1(=O)=O` (racemic) [HBV-CSU-296, Cis-N-(3-chloro-4-fluorophenyl)-5-(4-(1-(2-hydroxyethyl)-1H-pyrazol-4-yl)thiophen-2-yl)-2-methyl-1,2,6-thiadiazinane-3-carboxamide 1,1-dioxide] was 5.30 to 6.00; that for `COCCN1[C@H](C(=O)Nc2ccc(F)c(Cl)c2)C[C@H](c2nccs2)NS1(=O)=O` [HBV-CSU-058-ISO-II, Cis-N-(3-chloro-4-fluorophenyl)-2-(2-methoxyethyl)-5-(thiazol-2-yl)-1,2,6-thiadiazinane-3-carboxamide 1,1-dioxide] was greater than 6.00; that for `CN1[C@H](C(=O)Nc2ccc(F)c(Cl)c2)C[C@H](c2cc(-c3cnn(C)c3)cs2)NS1(=O)=O` [HBV-CSU-169-ISO-I, Cis-N-(3-chloro-4-fluorophenyl)-2-methyl-5-(4-(1-methyl-1H-pyrazol-4-yl)thiophen-2-yl)-1,2,6-thiadiazinane-3-carboxamide 1,1-dioxide] was greater than 6.00.
On to `CN1[C@H](C(=O)Nc2ccc(F)c(Cl)c2)C[C@H](c2ccc(-c3ccc(F)cn3)s2)NS1(=O)=O` [HBV-CSU-242-ISO-I, Cis-N-(3-chloro-4-fluorophenyl)-5-(5-(5-fluoropyridin-2-yl)thiophen-2-yl)-2-methyl-1,2,6-thiadiazinane-3-carboxamide 1,1-dioxide], for which the pEC50 is greater than 6.00.
The figure for `CN1C(C(=O)Nc2ccc(F)c(Cl)c2)CC(c2ccc(-c3ccccn3)s2)NS1(=O)=O` (racemic) [HBV-CSU-160, Cis-N-(3-chloro-4-fluorophenyl)-2-methyl-5-(5-(pyridin-2-yl)thiophen-2-yl)-1,2,6-thiadiazinane-3-carboxamide 1,1-dioxide] is greater than 6.00; for `CN1C(C(=O)Nc2ccc(F)c(Cl)c2)CC(c2ccc(-c3ncn(C)n3)s2)NS1(=O)=O` (racemic) [HBV-CSU-322, Cis-N-(3-Chloro-4-fluorophenyl)-2-methyl-5-(5-(1-methyl-1H-1,2,4-triazol-3-yl)thiophen-2-yl)-1,2,6-thiadiazinane-3-carboxamide 1,1-dioxide] it is greater than 6.00.
The figure for `CN1[C@H](C(=O)Nc2ccc(F)c(Cl)c2)C[C@H](c2ccon2)NS1(=O)=O` [HBV-CSU-055-ISO-I, Cis-N-(3-chloro-4-fluorophenyl)-5-(isoxazol-3-yl)-2-methyl-1,2,6-thiadiazinane-3-carboxamide 1,1-dioxide] is greater than 6.00; for `CN1[C@H](C(=O)Nc2ccc(F)c(Cl)c2)C[C@H](c2ncc(-c3ccc(NS(C)(=O)=O)cc3)s2)NS1(=O)=O` [HBV-CSU-179-ISO-I, Cis-N-(3-Chloro-4-fluorophenyl)-2-methyl-5-(5-(4-(methylsulfonamido)phenyl)thiazol-2-yl)-1,2,6-thiadiazinane-3-carboxamide 1,1-dioxide] it is greater than 6.00.
The value for `COCCCN1[C@@H](C(=O)Nc2ccc(F)c(Cl)c2)C[C@@H](c2nccs2)NS1(=O)=O` [HBV-CSU-077-ISO-I, Cis-N-(3-Chloro-4-fluorophenyl)-2-(3-methoxypropyl)-5-(thiazol-2-yl)-1,2,6-thiadiazinane-3-carboxamide 1,1-dioxide] was less than 5.30.

Source of the values: patent US11078170B2 (Assembly Biosciences, Inc., priority 2017, dated 2021).
